{
  "source": "patent US6355799B1",
  "about": "“Substituted benzene compounds, process for their preparation, and herbicidal and defoliant compositions containing them” (ISK Americas Incorporated, priority 1997, dated 2002)",
  "assay_type_in_all_cases": "in vivo",
  "key": {"[1]": {"tested_on": "ivyleaf morningglory (Ipomoea hederacea, IPOHE)", "assay": "Pre-emerge test, greenhouse herbicide activity screening", "details": "pre-emerge, 14 days after application, rating scale 0-100", "outline": "(§1)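 Visual ratings on a 0-100 scale (0 no damage, 100 all plants dead) were taken at 14 days after treatment. Rates of 15-1000 g ai/ha in acetone, 187 l/ha, were sprayed onto soil one day after planting (pre-emerge) or onto 2-3 leaf plants with 0.25% v/v surfactant (post-emerge).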"}, "[2]": {"tested_on": "green foxtail (Setaria viridis, SETVI)", "assay": "Pre-emerge test, greenhouse herbicide activity screening", "details": "pre-emerge, 14 days after application, rating scale 0-100", "outline": "as §1"}, "[3]": {"tested_on": "barnyardgrass (Echinochloa crus-galli, ECHCG)", "assay": "Pre-emerge test, greenhouse herbicide activity screening", "details": "pre-emerge, 14 days after application, rating scale 0-100", "outline": "as §1"}, "[4]": {"tested_on": "johnsongrass (Sorghum halepense, SORHA)", "assay": "Pre-emerge test, greenhouse herbicide activity screening", "details": "pre-emerge, 14 days after application, rating scale 0-100", "outline": "as §1"}, "[5]": {"tested_on": "large crabgrass (Digitaria sanguinalis, DIGSA)", "assay": "Pre-emerge test, greenhouse herbicide activity screening", "details": "pre-emerge, 14 days after application, rating scale 0-100", "outline": "as §1"}, "[6]": {"tested_on": "velvetleaf (Abutilon theophrasti, ABUTH)", "assay": "Pre-emerge test, greenhouse herbicide activity screening", "details": "pre-emerge, 14 days after application, rating scale 0-100", "outline": "as §1"}, "[7]": {"tested_on": "sicklepod (Cassia obtusifolia, CASOB)", "assay": "Pre-emerge test, greenhouse herbicide activity screening", "details": "pre-emerge, 14 days after application, rating scale 0-100", "outline": "as §1"}, "[8]": {"tested_on": "lambsquarters (Chenopodium album, CHEAL)", "assay": "Pre-emerge test, greenhouse herbicide activity screening", "details": "pre-emerge, 14 days after application, rating scale 0-100", "outline": "as §1"}, "[9]": {"tested_on": "upland rice (Oryza sp., var. Tebonnet, RICE)", "assay": "Pre-emerge test, crop safety", "details": "pre-emerge, 14 days after application, rating scale 0-100", "outline": "(§2)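 Rating: 0–100 visual injury, 14 DAA. Application: acetone, 187 l/ha, 15–1000 g ai/ha, flat-fan track sprayer with nozzle 40–45 cm above soil or canopy. Post-emerge runs used 0.25% v/v surfactant on 2–3 leaf plants.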"}, "[10]": {"tested_on": "field corn (Zea mays L., var. Dekalb 535, CORN)", "assay": "Pre-emerge test, crop safety", "details": "pre-emerge, 14 days after application, rating scale 0-100", "outline": "as §2"}, "[11]": {"tested_on": "upland rice (Oryza sp., var. Tebonnet, RICE)", "assay": "Post-emerge test, crop safety", "details": "post-emerge, 14 days after application, rating scale 0-100", "outline": "as §1"}, "[12]": {"tested_on": "field corn (Zea mays L., var. Dekalb 535, CORN)", "assay": "Post-emerge test, crop safety", "details": "post-emerge, 14 days after application, rating scale 0-100", "outline": "as §1"}, "[13]": {"tested_on": "ivyleaf morningglory (Ipomoea hederacea, IPOHE)", "assay": "Post-emerge test, greenhouse herbicide activity screening", "details": "post-emerge, 14 days after application, rating scale 0-100", "outline": "(§3)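 Compounds in acetone were track-sprayed at 15–1000 g ai/ha: pre-emergence onto soil sown the previous day, then top-watered to incorporate and later bottom-watered; post-emergence onto 2–3 leaf plants with 0.25% v/v surfactant, bottom-watered only. Ratings on a 0–100 phytotoxicity scale were taken at day 14.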"}, "[14]": {"tested_on": "green foxtail (Setaria viridis, SETVI)", "assay": "Post-emerge test, greenhouse herbicide activity screening", "details": "post-emerge, 14 days after application, rating scale 0-100", "outline": "as §3"}, "[15]": {"tested_on": "barnyardgrass (Echinochloa crus-galli, ECHCG)", "assay": "Post-emerge test, greenhouse herbicide activity screening", "details": "post-emerge, 14 days after application, rating scale 0-100", "outline": "as §3"}, "[16]": {"tested_on": "johnsongrass (Sorghum halepense, SORHA)", "assay": "Post-emerge test, greenhouse herbicide activity screening", "details": "post-emerge, 14 days after application, rating scale 0-100", "outline": "as §3"}, "[17]": {"tested_on": "large crabgrass (Digitaria sanguinalis, DIGSA)", "assay": "Post-emerge test, greenhouse herbicide activity screening", "details": "post-emerge, 14 days after application, rating scale 0-100", "outline": "as §3"}, "[18]": {"tested_on": "redroot pigweed (Amaranthus retroflexus, AMARE)", "assay": "Post-emerge test, greenhouse herbicide activity screening", "details": "post-emerge, 14 days after application", "outline": "as §3"}, "[19]": {"tested_on": "velvetleaf (Abutilon theophrasti, ABUTH)", "assay": "Post-emerge test, greenhouse herbicide activity screening", "details": "post-emerge, 14 days after application, rating scale 0-100", "outline": "as §3"}, "[20]": {"tested_on": "sicklepod (Cassia obtusifolia, CASOB)", "assay": "Post-emerge test, greenhouse herbicide activity screening", "details": "post-emerge, 14 days after application, rating scale 0-100", "outline": "as §3"}, "[21]": {"tested_on": "lambsquarters (Chenopodium album, CHEAL)", "assay": "Post-emerge test, greenhouse herbicide activity screening", "details": "post-emerge, 14 days after application, rating scale 0-100", "outline": "as §3"}, "[22]": {"tested_on": "redroot pigweed (Amaranthus retroflexus, AMARE)", "assay": "Pre-emerge test, greenhouse herbicide activity screening", "details": "pre-emerge, 14 days after application, rating scale 0-100", "outline": "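Herbicidal damage is scored 0 (none) to 100 (complete plant death) two weeks after a simulated field spray. Rates span 15–1000 g ai/ha, delivered in acetone at 187 l/ha. For post-emergence treatments, plants have 2–3 leaves and the spray carries 0.25% v/v non-ionic surfactant.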"}},
  "data": [
    {"smiles": "CCOC(=O)CC(C)=NNc1c(OC)c(Cl)cc(F)c1-n1c(=O)cc(C(F)(F)F)n(C)c1=O", "note": "[15-16]", "values": [
      {"measurement": "phytotoxicity rating IPOHE", "setting": "[1]; 63 g ai/ha", "result": 90},
      {"measurement": "phytotoxicity rating IPOHE", "setting": "[1]; 250 g ai/ha", "result": 100},
      {"measurement": "phytotoxicity rating SETVI", "setting": "[2]; 63 g ai/ha", "result": 100},
      {"measurement": "phytotoxicity rating SETVI", "setting": "[2]; 250 g ai/ha", "result": 100},
      {"measurement": "phytotoxicity rating ECHCG", "setting": "[3]; 63 g ai/ha", "result": 80},
      {"measurement": "phytotoxicity rating ECHCG", "setting": "[3]; 250 g ai/ha", "result": 100},
      {"measurement": "phytotoxicity rating SORHA", "setting": "[4]; 63 g ai/ha", "result": 100},
      {"measurement": "phytotoxicity rating SORHA", "setting": "[4]; 250 g ai/ha", "result": 100},
      {"measurement": "phytotoxicity rating DIGSA", "setting": "[5]; 63 g ai/ha", "result": 100},
      {"measurement": "phytotoxicity rating DIGSA", "setting": "[5]; 250 g ai/ha", "result": 100},
      {"measurement": "phytotoxicity rating ABUTH", "setting": "[6]; 63 g ai/ha", "result": 100},
      {"measurement": "phytotoxicity rating ABUTH", "setting": "[6]; 250 g ai/ha", "result": 100},
      {"measurement": "phytotoxicity rating CASOB", "setting": "[7]; 63 g ai/ha", "result": 90},
      {"measurement": "phytotoxicity rating CASOB", "setting": "[7]; 250 g ai/ha", "result": 100},
      {"measurement": "phytotoxicity rating CHEAL", "setting": "[8]; 63 g ai/ha", "result": 100},
      {"measurement": "phytotoxicity rating CHEAL", "setting": "[8]; 250 g ai/ha", "result": 100},
      {"measurement": "phytotoxicity rating RICE", "setting": "[9]; 63 g ai/ha", "result": 90},
      {"measurement": "phytotoxicity rating RICE", "setting": "[9]; 250 g ai/ha", "result": 100},
      {"measurement": "phytotoxicity rating CORN", "setting": "[10]; 63 g ai/ha", "result": 65},
      {"measurement": "phytotoxicity rating CORN", "setting": "[10]; 250 g ai/ha", "result": 100},
      {"measurement": "Post-emerge Herbicidal Activity RICE (crop damage rating)", "setting": "[11]; 63 g ai/ha", "result": 40},
      {"measurement": "Post-emerge Herbicidal Activity RICE (crop damage rating)", "setting": "[11]; 250 g ai/ha", "result": 80},
      {"measurement": "Post-emerge Herbicidal Activity CORN (crop damage rating)", "setting": "[12]; 63 g ai/ha", "result": 15},
      {"measurement": "Post-emerge Herbicidal Activity CORN (crop damage rating)", "setting": "[12]; 250 g ai/ha", "result": 45},
      {"measurement": "Post-emerge Herbicidal Activity IPOHE (phytotoxicity rating)", "setting": "[13]; 63 g ai/ha", "result": 100},
      {"measurement": "Post-emerge Herbicidal Activity IPOHE (phytotoxicity rating)", "setting": "[13]; 250 g ai/ha", "result": 100},
      {"measurement": "Post-emerge Herbicidal Activity SETVI (phytotoxicity rating)", "setting": "[14]; 63 g ai/ha", "result": 30},
      {"measurement": "Post-emerge Herbicidal Activity SETVI (phytotoxicity rating)", "setting": "[14]; 250 g ai/ha", "result": 60},
      {"measurement": "Post-emerge Herbicidal Activity ECHCG (phytotoxicity rating)", "setting": "[15]; 63 g ai/ha", "result": 10},
      {"measurement": "Post-emerge Herbicidal Activity ECHCG (phytotoxicity rating)", "setting": "[15]; 250 g ai/ha", "result": 90},
      {"measurement": "Post-emerge Herbicidal Activity SORHA (phytotoxicity rating)", "setting": "[16]; 63 g ai/ha", "result": 10},
      {"measurement": "Post-emerge Herbicidal Activity SORHA (phytotoxicity rating)", "setting": "[16]; 250 g ai/ha", "result": 70},
      {"measurement": "Post-emerge Herbicidal Activity DIGSA (phytotoxicity rating)", "setting": "[17]; 63 g ai/ha", "result": 20},
      {"measurement": "Post-emerge Herbicidal Activity DIGSA (phytotoxicity rating)", "setting": "[17]; 250 g ai/ha", "result": 80},
      {"measurement": "Post-emerge Herbicidal Activity AMARE (phytotoxicity rating)", "setting": "[18]; 63 g ai/ha, rating scale 0-100 (0 no damage, 100 complete death)", "result": 80},
      {"measurement": "Post-emerge Herbicidal Activity AMARE (phytotoxicity rating)", "setting": "[18]; 250 g ai/ha, rating scale 0-100", "result": 100},
      {"measurement": "Post-emerge Herbicidal Activity ABUTH (phytotoxicity rating)", "setting": "[19]; 63 g ai/ha", "result": 100},
      {"measurement": "Post-emerge Herbicidal Activity ABUTH (phytotoxicity rating)", "setting": "[19]; 250 g ai/ha", "result": 100},
      {"measurement": "Post-emerge Herbicidal Activity CASOB (phytotoxicity rating)", "setting": "[20]; 63 g ai/ha", "result": 80},
      {"measurement": "Post-emerge Herbicidal Activity CASOB (phytotoxicity rating)", "setting": "[20]; 250 g ai/ha", "result": 100},
      {"measurement": "Post-emerge Herbicidal Activity CHEAL (phytotoxicity rating)", "setting": "[21]; 63 g ai/ha", "result": 100},
      {"measurement": "Post-emerge Herbicidal Activity CHEAL (phytotoxicity rating)", "setting": "[21]; 250 g ai/ha", "result": 100},
      {"measurement": "phytotoxicity rating AMARE", "setting": "[22]; 63 g ai/ha", "result": 100},
      {"measurement": "phytotoxicity rating AMARE", "setting": "[22]; 250 g ai/ha", "result": 100}
    ]}
  ]
}
